This assay addresses T1, hFXR (Homo sapiens, UniProt Q96RI1).
T1 construct: expressed in transfected cells; host or cells: CV-1 cells
T1 sequence (Q96RI1 1-486): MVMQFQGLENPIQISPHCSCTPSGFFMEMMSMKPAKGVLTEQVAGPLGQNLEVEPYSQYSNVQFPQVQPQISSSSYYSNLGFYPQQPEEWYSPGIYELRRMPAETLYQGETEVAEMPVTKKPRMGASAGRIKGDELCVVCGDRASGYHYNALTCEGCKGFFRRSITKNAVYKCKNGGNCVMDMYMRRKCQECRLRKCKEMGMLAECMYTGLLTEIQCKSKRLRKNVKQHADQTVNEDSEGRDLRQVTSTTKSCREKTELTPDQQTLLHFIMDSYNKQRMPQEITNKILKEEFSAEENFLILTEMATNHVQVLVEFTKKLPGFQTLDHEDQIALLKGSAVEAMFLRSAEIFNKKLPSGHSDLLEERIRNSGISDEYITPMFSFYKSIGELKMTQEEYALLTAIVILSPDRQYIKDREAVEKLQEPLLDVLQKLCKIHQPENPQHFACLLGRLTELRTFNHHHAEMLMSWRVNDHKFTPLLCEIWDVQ
T1 sequence (P19793 1-462 partner): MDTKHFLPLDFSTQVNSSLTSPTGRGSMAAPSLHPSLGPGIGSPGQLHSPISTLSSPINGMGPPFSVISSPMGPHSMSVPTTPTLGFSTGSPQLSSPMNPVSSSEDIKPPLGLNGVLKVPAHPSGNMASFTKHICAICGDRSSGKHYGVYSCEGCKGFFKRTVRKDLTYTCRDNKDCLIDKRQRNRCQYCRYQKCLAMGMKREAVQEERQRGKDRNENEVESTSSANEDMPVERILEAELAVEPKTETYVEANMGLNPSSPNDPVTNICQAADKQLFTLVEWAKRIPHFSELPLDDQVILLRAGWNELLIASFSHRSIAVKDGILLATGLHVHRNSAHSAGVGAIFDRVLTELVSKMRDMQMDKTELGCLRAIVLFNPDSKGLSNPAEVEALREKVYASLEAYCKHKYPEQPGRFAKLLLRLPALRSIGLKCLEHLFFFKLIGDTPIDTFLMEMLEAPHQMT
Nature of the assay: In Vitro FXR Assay (TK): TK-ECRE-luc reporter in transfected CV-1 cells. To be noted: 18 hrs, luminescence, maximum efficacy of <25% of the Fexarmine control classified as '+'. The class given is cell-based. Put shortly:
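Cells are seeded in charcoal double-stripped FBS medium, transfected overnight with FXR/RXR expression and ECRE-driven luciferase reporter plasmids, then treated with serially diluted compounds for 18 h. Lysates are measured for luciferase light output.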
As to `CNC(=O)N[C@H]1CC[C@H](C(=O)N(C[C@H]2CC[C@H](c3ccc(OC)c(C)c3)CC2)c2cccc(-c3cnn(C4CC4)c3)c2)CC1` [Compound 26.37, trans-N-(3-(1-Cyclopropyl-1H-pyrazol-4-yl)phenyl)-N-((trans-4-(4-methoxy-3-methylphenyl)cyclohexyl)methyl)-4-(3-methylureido)cyclohexanecarboxamide], the EC50 is no more than 250 nM.

Consider `COc1ccc([C@H]2CC[C@H](CN(c3cccc(-c4cnc(C5CC5)s4)c3)C(=O)[C@H]3CC[C@H](NC(=O)C(C)(C)O)CC3)CC2)cc1C` [Compound 27, trans-N-(3-(2-Cyclopropylthiazol-5-yl)phenyl)-4-(2-hydroxy-2-methylpropanamido)-N-((trans-4-(4-methoxy-3-methylphenyl)cyclohexyl)methyl)cyclohexanecarboxamide], for which the EC50 was no more than 250 nM.

The compound `COc1ccc([C@H]2CC[C@H](CN(c3cccc(-c4cnc(C5CC5)s4)c3)C(=O)[C@H]3CC[C@H](NC(=O)C(C)O)CC3)CC2)cc1C` (stereo partly drawn) [Compound 27.01, trans-N-(3-(2-Cyclopropylthiazol-5-yl)phenyl)-4-(2-hydroxypropanamido)-N-((trans-4-(4-methoxy-3-methylphenyl)cyclohexyl)methyl) cyclohexanecarboxamide] came in with an EC50 of no more than 250 nM.

For `COc1ccc([C@H]2CC[C@H](CN(c3cccc(-c4cnc(C5CC5)s4)c3)C(=O)[C@H]3CC[C@H](NC(=O)C4COC4)CC3)CC2)cc1C` [Compound 27.02, N-(trans-4-((3-(2-Cyclopropylthiazol-5-yl)phenyl)((trans-4-(4-methoxy-3-methylphenyl)cyclohexyl)methyl)carbamoyl)cyclohexyl)oxetane-3-carboxamide], the EC50 was no more than 250 nM.

In turn, `COc1ccc([C@H]2CC[C@H](CN(c3cccc(-c4cnc(C5CC5)s4)c3)C(=O)[C@H]3CC[C@H](NC(=O)Cn4ccnc4)CC3)CC2)cc1C` [Compound 27.03, trans-4-(2-(1H-Imidazol-1-yl)acetamido)-N-(3-(2-cyclopropylthiazol-5-yl)phenyl)-N-((trans-4-(4-methoxy-3-methylphenyl)cyclohexyl)methyl)cyclohexanecarboxamide] had an EC50 of 250 to 1000 nM.

Compound `COc1ccc([C@H]2CC[C@H](CN(c3cccc(-c4cnc(C5CC5)s4)c3)C(=O)[C@H]3CC[C@H](NC(=O)Cc4ncc[nH]4)CC3)CC2)cc1C` [Compound 27.04, trans-4-(2-(1H-Imidazol-2-yl)acetamido)-N-(3-(2-cyclopropylthiazol-5-yl)phenyl)-N-((trans-4-(4-methoxy-3-methylphenyl)cyclohexyl)methyl)cyclohexanecarboxamide] showed an EC50 of no more than 250 nM.

Consider `COc1ccc([C@H]2CC[C@H](CN(c3cccc(-c4cnc(C5CC5)s4)c3)C(=O)[C@H]3CC[C@H](NC(=O)C4CN(C)C4)CC3)CC2)cc1C` [Compound 27.05, N-(trans-4-((3-(2-Cyclopropylthiazol-5-yl)phenyl)((trans-4-(4-methoxy-3-methylphenyl)cyclohexyl)methyl)carbamoyl)cyclohexyl)-1-methylazetidine-3-carboxamide], for which the EC50 is no less than 1000 nM.

In turn, `COc1ccc([C@H]2CC[C@H](CN(c3cccc(-c4cnc(C5CC5)s4)c3)C(=O)[C@H]3CC[C@H](NC(=O)C4CNC4)CC3)CC2)cc1C` [Compound 27.06, N-(trans-4-((3-(2-Cyclopropylthiazol-5-yl)phenyl)((trans-4-(4-methoxy-3-methylphenyl)cyclohexyl)methyl)carbamoyl)cyclohexyl)azetidine-3-carboxamide] had an EC50 of no less than 1000 nM.

In the case of `COc1ccc([C@H]2CC[C@H](CN(c3cccc(-c4cnc(C5CC5)s4)c3)C(=O)[C@H]3CC[C@H](NC(=O)OCCO)CC3)CC2)cc1C` [Compound 28, 2-Hydroxyethyl (trans-4-((3-(2-cyclopropylthiazol-5-yl)phenyl)((trans-4-(4-methoxy-3-methylphenyl)cyclohexyl)methyl)carbamoyl)cyclohexyl)carbamate], the 50% effective concentration (EC50) was no more than 250 nM.

Compound `COc1ccc([C@H]2CC[C@H](CN(c3cccc(-c4cnn(C(C)C)c4)c3)C(=O)[C@H]3CC[C@H](NCC(=O)O)CC3)CC2)cc1C` [Compound 29, 2-((trans-4-((3-(1-Isopropyl-1H-pyrazol-4-yl)phenyl)((trans-4-(4-methoxy-3-methylphenyl)cyclohexyl)methyl)carbamoyl)cyclohexyl)amino)acetic Acid] yielded an EC50 of no less than 1000 nM.

`COc1ccc([C@H]2CC[C@H](CN(c3cccc(-c4cnn(C5CC5)c4)c3)C(=O)[C@H]3CC[C@H](NC(=O)C4CC(OC)C4)CC3)CC2)cc1C` (stereo partly drawn) [Compound 30, trans-N-(3-(1-Cyclopropyl-1H-pyrazol-4-yl)phenyl)-N-((trans-4-(4-methoxy-3-methylphenyl)cyclohexyl)methyl)-4-(3-methoxycyclobutanecarboxamido)cyclohexanecarboxamide] registered an EC50 of no more than 250 nM.

In turn, `COc1ccc([C@H]2CC[C@H](CN(c3cccc(-c4cnn(C5CC5)c4)c3)C(=O)[C@H]3CC[C@H](NC(=O)C4CCC4)CC3)CC2)cc1C` [Compound 30.01, trans-4-(Cyclobutanecarboxamido)-N-(3-(1-cyclopropyl-1H-pyrazol-4-yl)phenyl)-N-((trans-4-(4-methoxy-3-methylphenyl)cyclohexyl)methyl) cyclohexanecarboxamide] registered a concentration for a half-maximal effect (EC50) of no more than 250 nM.

As to `COc1ccc([C@H]2CC[C@H](CN(c3cc(-c4coc(C5CC5)n4)ccn3)C(=O)[C@H]3CC[C@H](NC(=O)C4CCC4)CC3)CC2)nc1C` [Compound 30.02, trans-4-(cyclobutanecarboxamido)-trans-(4-(2-cyclopropyloxazol-4-yl)pyridine-2-yl)-N-((trans-4-(5-methoxy-6-methylpyridin-2-yl)cyclohexyl)methyl) cyclohexanecarboxamide], the EC50 was no more than 250 nM.

`COc1ccc([C@H]2CC[C@H](CN(c3cc(-c4coc(C5CC5)n4)ccn3)C(=O)[C@H]3CC[C@H](NC(=O)C4CC(OC)C4)CC3)CC2)nc1C` (stereo partly drawn) [Compound 30.03, trans-N-(4-(2-Cyclopropyloxazol-4-yl)pyridin-2-yl)-N-((trans-4-(5-methoxy-6-methylpyridin-2-yl)cyclohexyl)methyl)-4-(3-methoxycyclobutanecarboxamido) cyclohexanecarboxamide] gave an EC50 of no more than 250 nM.

For the compound `COc1ccc([C@H]2CC[C@H](CN(c3cc(-c4coc(C5CC5)n4)ccn3)C(=O)[C@H]3CC[C@H](CNC(=O)C4CCC4)CC3)CC2)nc1C` [Compound 30.04, trans-4-(Cyclobutanecarboxamidomethyl)-N-(4-(2-cyclopropyloxazol-4-yl)pyridin-2-yl)-N-((trans-4-(5-methoxy-6-methylpyridin-2-yl)cyclohexyl)methyl) cyclohexanecarboxamide], the EC50 was no more than 250 nM.

`COc1ccc([C@H]2CC[C@H](CN(c3cc(-c4coc(C5CC5)n4)ccn3)C(=O)[C@H]3CC[C@H](CNC(=O)C4CC(N(C)C)C4)CC3)CC2)nc1C` (stereo partly drawn) [Compound 30.05, trans-N-(4-(2-Cyclopropyloxazol-4-yl)pyridin-2-yl)-4-((3-(dimethylamino)cyclobutanecarboxamido)methyl)-N-((trans-4-(5-methoxy-6-methylpyridin-2-yl)cyclohexyl)methyl) cyclohexanecarboxamide] returned an EC50 of no less than 1000 nM.
